Assay results from the NIST ThermoML archive (doi:10.1021/je800653d).

Assay: xn = mol fraction of the nth substance listed
Conditions: 101 kPa, Liquid; for speed of sound: Linear variable-path acoustic interferometer; for viscosity: Capillary tube (Ostwald / Ubbelohde) method

O=S1(=O)CCCC1 [sulfolane] + CCOC(C)=O
Conditions | mass density [kg/m3] | speed of sound [m/s] | viscosity [mPa·s]
298.15 K, x1 = 1 | 1263.9 | 1601 | –
303.15 K, x1 = 0.0218 | 897.8 | 1134 | 0.4006
303.15 K, x1 = 0.1511 | 950.7 | 1196 | 0.5566
303.15 K, x1 = 0.2748 | 1001.1 | 1251 | 0.7832
303.15 K, x1 = 0.4012 | 1052.3 | 1313 | 1.118
303.15 K, x1 = 0.5068 | 1094 | 1366 | 1.5
303.15 K, x1 = 0.598 | 1127.6 | 1408 | 2.054
303.15 K, x1 = 0.7331 | 1175.4 | 1472 | 3.211
303.15 K, x1 = 0.8548 | 1215.5 | 1524 | 5.285
303.15 K, x1 = 0.9799 | 1255.5 | 1579 | 9.205
303.15 K, x1 = 1 | 1261.8 | 1588 | 10.03
308.15 K, x1 = 0.0218 | 893.2 | 1121 | 0.3819
308.15 K, x1 = 0.1511 | 947.1 | 1185 | 0.5275
308.15 K, x1 = 0.2748 | 997.7 | 1241 | 0.73
308.15 K, x1 = 0.4012 | 1048.8 | 1301 | 1.042
308.15 K, x1 = 0.5068 | 1090.3 | 1355 | 1.394
308.15 K, x1 = 0.598 | 1123.9 | 1398 | 1.882
308.15 K, x1 = 0.7331 | 1171.5 | 1465 | 2.923
308.15 K, x1 = 0.8548 | 1211.6 | 1515 | 4.756
308.15 K, x1 = 0.9799 | 1251.9 | 1569 | 8.078
308.15 K, x1 = 1 | 1257 | 1576 | 8.795
313.15 K, x1 = 0.0218 | 885.1 | 1092 | 0.3633
313.15 K, x1 = 0.1511 | 939.5 | 1154 | 0.4961
313.15 K, x1 = 0.2748 | 989.9 | 1216 | 0.6874
313.15 K, x1 = 0.4012 | 1040.5 | 1283 | 0.9781
313.15 K, x1 = 0.5068 | 1082.1 | 1346 | 1.292
313.15 K, x1 = 0.598 | 1116.7 | 1397 | 1.752
313.15 K, x1 = 0.7331 | 1164.7 | 1464 | 2.7
313.15 K, x1 = 0.8548 | 1205.5 | 1513 | 4.281
313.15 K, x1 = 0.9799 | 1245.8 | 1555 | 7.092
313.15 K, x1 = 1 | 1251.6 | 1558 | 7.837

O=S1(=O)CCCC1 [sulfolane] + CCCCOC(C)=O
Conditions | mass density, 303.15 K [kg/m3] | mass density, 308.15 K [kg/m3] | mass density, 313.15 K [kg/m3] | speed of sound, 303.15 K [m/s] | speed of sound, 308.15 K [m/s] | speed of sound, 313.15 K [m/s] | viscosity, 303.15 K [mPa·s] | viscosity, 308.15 K [mPa·s] | viscosity, 313.15 K [mPa·s]
x1 = 0.0311 | 880.8 | 876.9 | 871.8 | 1182 | 1164 | 1146 | 0.6426 | 0.6016 | 0.5637
x1 = 0.1903 | 932.3 | 928.6 | 923.5 | 1232 | 1212 | 1193 | 0.895 | 0.8248 | 0.7699
x1 = 0.3402 | 985.2 | 980.9 | 975.4 | 1280 | 1261 | 1245 | 1.242 | 1.145 | 1.066
x1 = 0.474 | 1036.1 | 1030.9 | 1025.4 | 1327 | 1316 | 1301 | 1.722 | 1.577 | 1.457
x1 = 0.5789 | 1078.5 | 1072.7 | 1067.1 | 1372 | 1366 | 1354 | 2.3 | 2.082 | 1.903
x1 = 0.6793 | 1120.5 | 1114.4 | 1108.8 | 1424 | 1418 | 1408 | 3.027 | 2.717 | 2.471
x1 = 0.7887 | 1168.2 | 1162.1 | 1156.6 | 1477 | 1468 | 1466 | 4.275 | 3.837 | 3.436
x1 = 0.8876 | 1212.2 | 1207.1 | 1201.5 | 1528 | 1520 | 1510 | 6.2 | 5.499 | 4.902
x1 = 0.9836 | 1254.2 | 1250.1 | 1244.8 | 1577 | 1572 | 1556 | 9.049 | 7.925 | 6.987
x1 = 1 | 1261.8 | 1257 | 1251.6 | 1588 | 1576 | 1558 | 10.03 | 8.795 | 7.837

O=S1(=O)CCCC1 [sulfolane] + CCCOC(C)=O
Conditions | mass density, 303.15 K [kg/m3] | mass density, 308.15 K [kg/m3] | mass density, 313.15 K [kg/m3] | speed of sound, 303.15 K [m/s] | speed of sound, 308.15 K [m/s] | speed of sound, 313.15 K [m/s] | viscosity, 303.15 K [mPa·s] | viscosity, 308.15 K [mPa·s] | viscosity, 313.15 K [mPa·s]
x1 = 0.0247 | 886.9 | 881.9 | 875.7 | 1154 | 1147 | 1134 | 0.5146 | 0.4827 | 0.4554
x1 = 0.1746 | 941.4 | 935.8 | 929.8 | 1214 | 1203 | 1189 | 0.726 | 0.6764 | 0.6342
x1 = 0.311 | 992.9 | 986.9 | 981.3 | 1266 | 1257 | 1243 | 1.019 | 0.9439 | 0.8781
x1 = 0.4416 | 1043.1 | 1037.9 | 1032.4 | 1322 | 1312 | 1301 | 1.438 | 1.325 | 1.222
x1 = 0.5468 | 1084.6 | 1079.6 | 1074 | 1368 | 1359 | 1352 | 1.922 | 1.762 | 1.617
x1 = 0.6489 | 1124.9 | 1120.1 | 1114.1 | 1419 | 1410 | 1401 | 2.624 | 2.375 | 2.176
x1 = 0.7639 | 1169.5 | 1164.7 | 1159.4 | 1474 | 1469 | 1458 | 3.92 | 3.502 | 3.185
x1 = 0.8733 | 1212.3 | 1207.6 | 1202.2 | 1530 | 1521 | 1510 | 5.863 | 5.217 | 4.662
x1 = 0.9823 | 1255.4 | 1251 | 1245.4 | 1579 | 1573 | 1555 | 9.305 | 8.132 | 7.222
x1 = 1 | 1261.8 | 1257 | 1251.6 | 1588 | 1576 | 1558 | 10.03 | 8.795 | 7.837
